# Results reported in patent publication US11702401B2, “Compounds and methods of use” (Medivation Technologies LLC, priority 2014, dated 2023).
# Tests used:
# [1] = Plasma and brain concentrations in male mice at 0.5 and 1 h; format: in vivo
# [2] = Pharmacokinetics and bioavailability in male mice, oral single dose; format: in vivo; conditions: oral 10 mg/kg
"Brain Concentration ([1]; IV, 0.5 h)","Plasma Concentration ([1]; IV, 0.5 h)","Brain Concentration ([1]; IV, 1 h)","Plasma Concentration ([1]; IV, 1 h)","Brain Concentration ([1]; PO, 0.5 h)","Plasma Concentration ([1]; PO, 0.5 h)","Brain Concentration ([1]; PO, 1 h)","Plasma Concentration ([1]; PO, 1 h)",AUClast [2],Tmax [2],Structure (SMILES)
48 nM,3040 nM,19 nM,1230 nM,48 nM,3420 nM,25 nM,1690 nM,7.50 µM·h,30 min,"C[C@H](O)CNC(=O)c1cnccc1Nc1cc(-c2cc(Cl)ccc2F)ncc1N(C)C (single isomer, unassigned) [16a]"
7 nM,1690 nM,5 nM,967 nM,20 nM,7070 nM,15 nM,3530 nM,,,"CC(C)c1cnc(-c2cc(Cl)ccc2F)cc1Nc1ccncc1C(=O)NC(CO)CO [compound 22, 4-[[2-(5-chloro-2-fluoro-phenyl)-5-isopropyl-4-pyridyl]amino]-N-[2-hydroxy-1-(hydroxymethyl)ethyl]pyridine-3-carboxamide]"
